Assay results published in PMC10619430, “Xenobiotic Exposure and Migraine-Associated Signaling: A Multimethod Experimental Study Exploring Cellular Assays in Combination with Ex Vivo and In Vivo Mouse Models” (Environmental Health Perspectives, 2023).

Assays:
Assay type in all cases: cell-based
[1] = target: T1, human TRPA1 channel (hTRPA1) (Homo sapiens, UniProt O75762); test: fluo-4 calcium imaging in hTRPA1-HEK vs control cells at […]; settings: read-out: % of ionomycin response at 100 μM
[2] = target: T1, human TRPA1 channel (hTRPA1); test: fluo-4 calcium imaging in hTRPA1-HEK vs control cells at […] ([…] of ionomycin, […] of SCA response)
[3] = target: T1, human TRPA1 channel (hTRPA1); test: whole-cell patch clamp in hTRPA1-HEK cells vs control cells; calcium imaging

T1 sequence (O75762 whole entry): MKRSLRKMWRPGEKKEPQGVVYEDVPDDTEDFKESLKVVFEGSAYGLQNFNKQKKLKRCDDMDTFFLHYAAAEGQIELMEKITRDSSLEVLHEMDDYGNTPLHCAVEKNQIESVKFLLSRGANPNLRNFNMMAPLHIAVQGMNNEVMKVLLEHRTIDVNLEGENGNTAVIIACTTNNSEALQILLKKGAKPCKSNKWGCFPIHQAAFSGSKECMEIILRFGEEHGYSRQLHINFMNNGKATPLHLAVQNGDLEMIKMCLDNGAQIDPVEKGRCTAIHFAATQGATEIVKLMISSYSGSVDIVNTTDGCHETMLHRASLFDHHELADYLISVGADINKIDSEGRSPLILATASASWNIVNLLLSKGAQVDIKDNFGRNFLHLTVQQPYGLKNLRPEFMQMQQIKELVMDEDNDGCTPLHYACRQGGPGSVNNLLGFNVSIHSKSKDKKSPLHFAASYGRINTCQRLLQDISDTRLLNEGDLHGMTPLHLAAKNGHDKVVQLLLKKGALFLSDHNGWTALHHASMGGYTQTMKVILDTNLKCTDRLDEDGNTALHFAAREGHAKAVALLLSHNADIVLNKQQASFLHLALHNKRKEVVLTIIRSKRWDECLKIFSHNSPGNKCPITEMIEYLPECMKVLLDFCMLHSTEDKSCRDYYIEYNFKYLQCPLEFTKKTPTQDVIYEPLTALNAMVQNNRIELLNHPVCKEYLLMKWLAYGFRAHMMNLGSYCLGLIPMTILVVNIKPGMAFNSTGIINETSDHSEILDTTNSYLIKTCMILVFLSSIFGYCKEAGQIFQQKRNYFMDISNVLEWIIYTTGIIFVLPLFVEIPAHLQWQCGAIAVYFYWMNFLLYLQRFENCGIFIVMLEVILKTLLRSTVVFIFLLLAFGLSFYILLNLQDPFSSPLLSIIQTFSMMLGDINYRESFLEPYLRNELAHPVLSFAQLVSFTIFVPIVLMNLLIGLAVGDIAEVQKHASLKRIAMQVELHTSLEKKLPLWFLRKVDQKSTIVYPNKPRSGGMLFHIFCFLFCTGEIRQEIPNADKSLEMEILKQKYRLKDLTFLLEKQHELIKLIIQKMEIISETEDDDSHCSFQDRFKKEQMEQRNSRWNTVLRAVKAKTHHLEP

| SMILES | activation at 100 µM [1] [%] | other results |
| --- | --- | --- |
| CC(C)(c1ccc(O)cc1)c1ccc(O)cc1 [BPA, 4-[2-(4-hydroxyphenyl)propan-2-yl]phenol] | 11 | – |
| O=C(OCc1ccccc1)c1ccc(O)cc1 [BzPa, Benzyl 4-hydroxybenzoate] | 34.2 | – |
| Oc1c(Cl)cc(Cl)c(Cl)c1Cc1c(O)c(Cl)cc(Cl)c1Cl [HCP, 3,4,6-trichloro-2-[(2,3,5-trichloro-6-hydroxyphenyl)methyl]phenol] | – | activation at 10 µM [2]: 47% |
| Oc1c(Cl)c(Cl)c(Cl)c(Cl)c1Cl [PCP, 2,3,4,5,6-pentachlorophenol] | – | EC50 [3]: 15 µM |
